Measured values taken from patent US10508103B2, “Benzimidazole-linked indole compound acting as novel divalent IAP antagonist” (MEDSHINE DISCOVERY INC., priority 2016, dated 2019).

Legend:
[1] = system: NF-κB Luciferase Reporter Hela cells; test: TNF-α inducing NF-κB reporter; format: cell-based; details: Homo sapiens, 6 h, Bright-Glo luciferase
Procedure: Biological Assay 2: TNF-α inducing NF-κB reporter
• 1) tested compounds were added into DMSO to give parent liquor (10 mM); • 2) reference compound Birinapant (32 μL, 10 mM) was added into DMSO (128 μL) to give a solution (2 mM); • 3) 0.5 μL reference compound Birinapant (2 mM) and tested compounds (10 mM) were taken by Echo and added into Greiner 96 well black cell culture plate respectively. The initial concentration of the reference compound and tested compound was 10 μM and 50 μM, respectively. Then, the reference compound and tested compounds were diluted at 9 points in series by 5-fold; and every plate was repeated for 3 times. • 4) the reference compound WXFL2012A001 (Birinapant) (final concentration: 10 μM) as HPE and DMSO (final concentration: 0.5%) as ZPE.
• 5) purpose of the three repeated plates: the first plate was used for testing compounds' activity;
the second plate was used for testing cytotoxicity of the compounds; the third plate was used for solution replacement of the first and second plates: mixing inducer TNF-α and medium containing 0.1% FBS, and then being added to the third plate and the resultant mixture was transferred to the first plate where supernatants had been removed.
• 1) removing medium in NF-iBLuciferase Reporter Hela cell culture flask and washing cell once with PBS (10 mL) • 2) adding 0.25% pancreatin (3 mL) to T150 cell culture flask, and placinginto cell incubator (37° C., 5%CO2) and dissociating cell for 3 min, and then medium (10 mL) was added to end dissociation and blowing cells with electric pipette until cells were dispersed into single cell. • 3) Calculating cell density with cell counter Countstar • 4) Adjusting NF-κB Luciferase Reporter Hela density with medium to 2.0×10^5 cells/mL • 5) Adding cells to two Greiner 96 well black cell culture plates containing compounds, (100 μL per well (2.0×10^4 cells/well)), one plate was used for testing compounds' activity, another was used for testing cytotoxicity of the compounds. • 6) Placing cell culture plates into cell incubator (37° C., 5%CO2) and incubatingfor 24 h Second Day TNF-α Inducing • 1) TNF-α (100 μg/mL) was diluted into 20 ng/mL with 0.1% FBS medium and transferredto the third plate with 100 μL per well • 2) Removing medium of the first 96 well black cell culture plate (compound activity testing plate) after 24 h, replacing with fresh medium containing the compound and 20 ng/mL TNF-α in the third plate • 3) Placing cell culture plate into cell incubator (37° C., 5% CO2) and incubatingfor 6 h • 4) after 6 h, compound's activity in the first plate was tested according to Bright-Glo (Promega) manual method, luciferase signal in each well was tested by Envision plate reader • 5) compound's cytotoxicity in the second plate was tested according to ATPlite 1Step (Perkin Elmer) manual method, luciferase signal in each well was tested by Envision plate reader • 6) analyzing with software to obtain EC50 of compound.

cIAP1-BIR3 Protein = cIAP1-BIR3 Protein (Homo sapiens (Human), UniProt Q13490); test: Fluorescence polarization affinity of compounds to cIAP1-BIR3; format: binding; details: cIAP1-BIR3 20 nM; 5 nM ARPFAQ-K(5-FAM)-NH2 probe; FP; pH 7.5; read-out: affinity to target protein in vitro, cIAP1-BIR3 Protein (IC50)
cIAP1-BIR3 Protein, sequence (Q13490 253-363): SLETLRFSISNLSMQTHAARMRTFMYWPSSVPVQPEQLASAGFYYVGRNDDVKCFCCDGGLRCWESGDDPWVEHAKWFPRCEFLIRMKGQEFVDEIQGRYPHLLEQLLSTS
Procedure: (§1) Biological Assay 1: affinity of compounds to cIAP1-BIR3, cIAP2-BIR3, XIAP-BIR3 • 1) Affinity of compounds listed in table to cIAP1-BIR3, Ciap2-BIR3, XIAP-BIR3 was tested referring to Nikolovska-Colesks, Z. et.Al. (Analytical Biochemistry,2004,232:261-273) to obtain IC50 value. Generally speaking, in 10-dose IC50 mode, IAP antagonists with different concentrations were diluted in series by 3-fold and fluorescence labelled ARPFAQ-K (5-FAM)-NH2 peptide was used as probe to test compounds binding to protein BIR3 domain. • 2) Test condition: cIAP1-BIR3: 20 nM; cIAP2-BIR3: 60 nM; XIAP-BIR3: 30 nM; 5 nM probe in 100 mM tripotassium phosphate, pH 7.5, 0.1 mg/mL BSA, 0.005% Triton X100 and 0.5% DMSO. • 3) Test procedure: compounds were added into protein with different concentrations by using ECHO (LabCyte), and then the mixture was preincubated for 15 min. The probe was added and the final concentration was 5 nM. After incubating for 60 min, FP was tested and mP was calculated. Experiment results were list in table 1.

XIAP-BIR3 Protein = XIAP-BIR3 Protein (Homo sapiens (Human), UniProt P98170); test: Fluorescence polarization affinity of compounds to XIAP-BIR3; format: binding; details: XIAP-BIR3 30 nM; 5 nM ARPFAQ-K(5-FAM)-NH2 probe; FP; pH 7.5; read-out: affinity to target protein in vitro, XIAP-BIR3 Protein (IC50)
XIAP-BIR3 Protein, sequence (P98170 241-356): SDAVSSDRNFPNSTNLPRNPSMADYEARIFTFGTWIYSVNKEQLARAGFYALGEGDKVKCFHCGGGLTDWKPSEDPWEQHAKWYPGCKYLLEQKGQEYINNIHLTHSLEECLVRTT
Procedure: as §1

cIAP2-BIR3 Protein = cIAP2-BIR3 Protein (Homo sapiens (Human), UniProt Q13489); test: Fluorescence polarization affinity of compounds to cIAP2-BIR3; format: binding; details: cIAP2-BIR3 60 nM; 5 nM ARPFAQ-K(5-FAM)-NH2 probe; FP; pH 7.5; read-out: affinity to target protein in vitro, cIAP2-BIR3 Protein (IC50)
cIAP2-BIR3 Protein, sequence (Q13489 238-349): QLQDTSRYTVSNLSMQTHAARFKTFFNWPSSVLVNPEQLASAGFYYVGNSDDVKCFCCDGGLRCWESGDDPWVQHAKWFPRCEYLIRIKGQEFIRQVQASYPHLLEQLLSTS
Procedure: as §1

[2] = Table 3, 20 ng/mL TNF-α, values given as ranges

Structure (SMILES) | EC50 [1, 2] [µM] | EC50 ([1]; Table 4, 20 ng/mL TNF-α, exact values with control Birinapant) [µM] | IC50 (cIAP1-BIR3 Protein) [µM] | IC50 (XIAP-BIR3 Protein) [µM] | IC50 (cIAP2-BIR3 Protein) [µM]
CN[C@@H](C)C(=O)N[C@H](C(=O)N1C[C@@H](F)C[C@H]1Cc1c(-c2nc3cc(F)ccc3n2C[C@@H]2C[C@H](F)CN2C(=O)[C@@H](NC(=O)[C@H](C)NC)C(C)C)[nH]c2cc(F)ccc12)C(C)C [Embodiment 16] | < 0.01 | 0.00066 | < 0.01 | 0.01 to 0.1 | 0.01 to 0.1
CC[C@H](NC(=O)[C@H](C)NC)C(=O)N1CC(F)(F)C[C@H]1Cc1c(-c2nc3cc(F)ccc3n2C[C@@H]2CC(F)(F)CN2C(=O)[C@H](CC)NC(=O)[C@H](C)NC)[nH]c2cc(F)ccc12 [Embodiment 43] | > 0.1 | – | 0.01 to 0.1 | 0.01 to 0.1 | 0.01 to 0.1
CC[C@H](NC(=O)[C@H](C)NC)C(=O)N1C[C@@H](F)C[C@H]1Cc1c(-c2nc3cc(F)ccc3n2C[C@@H]2C[C@H](F)CN2C(=O)[C@@H](NC(=O)[C@H](C)NC)C(C)(C)C)[nH]c2cc(F)ccc12 [Embodiment 19] | < 0.01 | – | < 0.01 | 0.01 to 0.1 | 0.01 to 0.1
CC[C@H](NC(=O)[C@H](C)NC)C(=O)N1CC(F)(F)C[C@H]1Cc1c(-c2nc3cc(F)ccc3n2C[C@@H]2CC(F)(F)CN2C(=O)[C@@H](NC(=O)[C@H](C)NC)C(C)C)[nH]c2cc(F)ccc12 [Embodiment 46] | 0.01 to 0.1 | – | < 0.01 | 0.01 to 0.1 | 0.01 to 0.1
CN[C@@H](C)C(=O)N[C@H](C(=O)N1C[C@@H](F)C[C@H]1Cn1c(-c2[nH]c3cc(F)ccc3c2C[C@@H]2C[C@H](F)CN2C(=O)[C@@H](NC(=O)[C@H](C)NC)C2CC2)nc2cc(F)ccc21)C(C)C [Embodiment 28] | < 0.01 | – | < 0.01 | < 0.01 | 0.01 to 0.1

Results, then the compound that gave them:

EC50 [1, 2] [µM] | EC50 ([1]; Table 4, 20 ng/mL TNF-α, exact values with control Birinapant) [µM] | IC50 (cIAP1-BIR3 Protein) [µM] | IC50 (XIAP-BIR3 Protein) [µM] | IC50 (cIAP2-BIR3 Protein) [µM] | Structure (SMILES)
0.01 to 0.1 | – | < 0.01 | 0.01 to 0.1 | 0.01 to 0.1 | CC[C@H](NC(=O)[C@H](C)NC)C(=O)N1C[C@@H](F)C[C@H]1Cc1c(-c2nc3cc(F)ccc3n2C[C@@H]2C[C@H](F)CN2C(=O)[C@@H](NC(=O)[C@H](C)NC)C2CC2)[nH]c2cc(F)ccc12 [Embodiment 31]
0.01 to 0.1 | – | < 0.01 | 0.01 to 0.1 | 0.01 to 0.1 | CN[C@@H](C)C(=O)N[C@H](C(=O)N1C[C@@H](F)C[C@H]1Cc1c(-c2nc3cc(F)ccc3n2C[C@@H]2C[C@H](F)CN2C(=O)[C@@H](NC(=O)[C@H](C)NC)C2CC2)[nH]c2cc(F)ccc12)C1CC1 [Embodiment 14]
< 0.01 | – | < 0.01 | < 0.01 | 0.01 to 0.1 | CN[C@@H](C)C(=O)N[C@H](C(=O)N1C[C@@H](F)C[C@H]1Cc1c(-c2nc3cc(F)ccc3n2C[C@@H]2C[C@H](F)CN2C(=O)[C@@H](NC(=O)[C@H](C)NC)C2CCC2)[nH]c2cc(F)ccc12)C1CCC1 [Embodiment 17]
